For 68 compounds, EC50, IC50 and outcome results are on record in PubChem BioAssay AID179 (DTP/NCI, 2004).

What is called EC50 is the midpoint of the concentration-response curve. A word on the IC50: it is the concentration needed to halve the response being measured.

Molecules are shown by their SMILES. Calls of active or inactive are those of the source.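 How the source made its calls: active means compounds giving half or more protection of infected cells from virus-caused growth loss, again on retest; inactive means the rest.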

The assay concerns CEM cells HIV-1 protection, formazan growth assay. The experiment in a line: NCI AIDS Antiviral Assay. The settings on record: for IC50: measured here: growth of uninfected CEM cells. In short, it runs like this:
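Category rules: moderately active means at least 50% protection on retest, and confirmed active means 100% protection reproducibly. The underlying data came from a formazan growth assay in HIV-1-infected CEM cells.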

Turning to `Oc1ccc([I+]c2ccccc2)cc1O`, the EC50 was > 107 µM and the IC50 stood at 30.2 µM.

As to `CCC1C(c2ccccc2O)c2cc3c(cc2OC1N1CCOCC1)OCO3` (centres undefined), the EC50 is > 200 µM and the half-maximal inhibitory concentration (IC50) is 22.4 µM.

In the case of `O=c1[nH]c2c(nc1NC13CC4CC(CC(C4)C1)C3)c(=O)oc1ccccc12`, the EC50 was > 2 µM and the IC50 was > 2 µM.

Regarding `S=C(Nc1ccc2c(c1)oc1ccccc12)c1cccs1`, the EC50 is > 200 µM and the IC50 was > 200 µM.

Regarding `OC(CC(O)(C(F)(F)F)C(F)(F)F)c1cccs1` (centres undefined), the EC50 was > 200 µM and the 50% inhibitory concentration (IC50) amounted to 93.3 µM.

Regarding `O=c1cc(-c2ccc3c(c2)OCO3)oc2c(Cl)cc(Cl)cc12`, the EC50 is > 100 µM and the IC50 was determined as 57.5 µM.

As for `CC(C)Oc1c(C2(c3ccccc3O)SCCCS2)c(=O)c1=O`, the EC50 was > 200 µM and the half-maximal inhibitory concentration (IC50) is 112 µM.

`O=C(NCCc1c[nH]c2ccccc12)C1CCCCC1`: the EC50 is > 200 µM and the half-maximal inhibitory concentration (IC50) came to 67.6 µM.

As for `C/C(=N\Nc1ccccc1)c1sc(-c2nc(C)c(/C(C)=N/Nc3ccccc3)s2)nc1C`, the EC50 was > 15.5 µM and the IC50 was > 15.5 µM.

Regarding `OCC(O)COc1ccc(Br)cc1` (centres undefined), the EC50 is > 1000 µM and the half-inhibitory concentration (IC50) worked out at 646 µM.

With `C=CCn1c(-c2ccc([N+](=O)[O-])cc2)csc1=N`, the EC50 is > 200 µM and the IC50 is 26.3 µM.

Regarding `Cc1cn([C@@H]2C[C@@H]2CO)c(=O)[nH]c1=O`, the outcome was inactive.

Take `N#Cc1cc([N+](=O)[O-])ccc1NC(=O)C(=O)C(C(=O)/C=C/c1ccccc1)C1OC(=O)c2ccccc21` (centres undefined): the EC50 is > 191 µM and the IC50 was > 191 µM.

Regarding `O=C(/C=C(\O)C(=O)O)/C=C(\O)c1ccccc1`, the EC50 was > 200 µM and the IC50 is > 200 µM.

Consider `CCCCCCCCCCCCCCCCCC(=O)OC(COC(=O)COCCOCCOCCOCCOCCOC)COP(=O)([O-])OCC[N+](C)(C)C` (centres undefined), for which the outcome was inactive.

Turning to `COc1ccccc1NCc1nnc(CCCCCCCCc2nnc(CNc3ccccc3OC)o2)o1`, the EC50 is > 200 µM and the IC50 was > 200 µM.

For the compound `OC(CC(CC(O)(C(F)(F)Cl)C(F)(F)Cl)=NNc1ccccc1)(C(F)(F)Cl)C(F)(F)Cl`, the EC50 was > 200 µM and the IC50 came out at 2.14 µM.

For `CC1(C)CC(=O)C2=C(C1)NC1=C(C2)C(=O)CC(C)(C)C1`, the EC50 was > 200 µM and the IC50 is > 200 µM.

For the compound `Brc1ccc(N2N=NC3CN(c4ccccc4)CC32)cc1` (centres undefined), the EC50 is > 100 µM and the IC50 worked out at 58.9 µM.

With `CC1OC(OP(=O)(OCc2ccccc2)OCc2ccccc2)C(OC(=O)c2ccccc2)C(OC(=O)c2ccccc2)C1I` (centres undefined), the EC50 is > 25.1 µM and the IC50 is > 25.1 µM.

Regarding `CC1(C)CCc2cc3c(-c4ccccc4)cc(=O)oc3cc2O1`, the outcome was inactive.

With `Fc1ccc(Nc2nc(Cl)c3[nH]cnc3n2)cc1Cl`, the EC50 was > 200 µM and the IC50 was > 200 µM.

With `Cc1cc2c(C(C)C)c(O)c(O)c(C=Nc3ccccc3S)c2c(O)c1-c1c(C)cc2c(C(C)C)c(O)c(O)c(C=Nc3ccccc3S)c2c1O`, the EC50 is > 200 µM and the IC50 was determined as 16.2 µM.

Regarding `NC(N)=NCCCC(N)C(=O)O` (centres undefined), the EC50 was > 200 µM and the IC50 is > 200 µM.

In the case of `COC(=O)c1csc(-c2nc(CCNC(=O)OC(C)(C)C)sc2Br)n1`, the EC50 was > 79.4 µM and the IC50 was 31.6 µM.

For the compound `CC(=O)/C(=C/c1ccccc1F)C(=O)c1ccccc1`, the EC50 is > 26.9 µM and the IC50 is > 26.9 µM.

Turning to `CCOc1ccccc1N=NC1C(=O)N(C(=O)CC(=O)Nc2ccccc2Cl)N=C1C` (centres undefined), the EC50 was > 200 µM and the IC50 was > 200 µM.

As to `COc1cc(C2SCC(=O)N2c2ccc(-n3c(-c4ccccc4)nc4ccccc4c3=O)cc2)ccc1O` (centres undefined), the EC50 was > 200 µM and the IC50 was 102 µM.

Regarding `COc1ccc(-c2c3c(n(C4OC(CO)C(O)C(O)C4O)c(=S)c2C#N)CC(C)(C)CC3=O)cc1` (centres undefined), the EC50 is > 200 µM and the IC50 came out at 105 µM.

Turning to `CCOC(=O)C1CSCCSC1`, the EC50 was > 174 µM and the IC50 was > 174 µM.

Consider `O=C(O)Cc1cccc2c1Oc1ccccc1S2`, for which the EC50 was > 5620 µM and the IC50 was determined as 204 µM.

As for `NC(CCCCNC(=O)CNC(=O)OCc1ccccc1)C(=O)NC(CCCCNC(=O)CNC(=O)OCc1ccccc1)C(=O)NC(CCCCNC(=O)CNC(=O)OCc1ccccc1)C(=O)NC(CCCCNC(=O)CNC(=O)OCc1ccccc1)C(=O)NC(CCCCNC(=O)CNC(=O)OCc1ccccc1)C(=O)NC(CCCCNC(=O)CNC(=O)OCc1ccccc1)C(=O)O` (centres undefined), the EC50 was > 100 µM and the IC50 was > 100 µM.

For the compound `O=S(Nc1ccccc1)c1ccc(Cl)cc1` (centres undefined), the EC50 is > 200 µM and the IC50 worked out at 81.3 µM.

Consider `CC(=O)n1[nH]c(=O)n(-c2ccccc2)c1=O`, for which the EC50 was > 200 µM and the IC50 is > 200 µM.

With `Cc1c(Cl)cccc1NC(=O)C(=O)C(C(=O)c1ccccc1-c1ccccc1)C1OC(=O)c2ccccc21` (centres undefined), the EC50 was > 69.2 µM and the IC50 worked out at 26.3 µM.

In the case of `CCC/C(Cl)=N\OC(=O)Nc1ccc(Br)cc1`, the result was inactive.

In the case of `Cc1ccc(N=NC(=O)NNc2ccc(C)cc2Br)c(Br)c1`, the EC50 was > 200 µM and the IC50 stood at 35.5 µM.

On to `CC(=O)OC1CSc2ccccc2N(C(C)=O)C1` (centres undefined), for which the EC50 is > 355 µM and the IC50 was > 355 µM.

Turning to `CC(C)C(NCc1c2ccccc2[n+]([O-])c2ccccc12)C(=O)O` (centres undefined), the result was inactive.

Turning to `CNC(=O)OCc1c(COC(=O)NC)c2n(c1C)CSC2`, the EC50 was > 200 µM and the IC50 is 8.13 µM.

Take `CN(C)CCNc1nc2c(no[n+]2[O-])c2ccccc12`: the EC50 is > 200 µM and the concentration for half-maximal inhibition (IC50) amounted to 9.33 µM.

In the case of `C=C[C@@]1(O)CCCC2=C(C(=O)OCC)CC[C@]21C`, the outcome was inactive.

Take `O=C1C(=O)C(CN2CCOCC2)=C(N2CCOCC2)C(N2CCOCC2)=C1CN1CCOCC1`: the EC50 was > 200 µM and the IC50 came out at 77.6 µM.

Regarding `COc1cc(CC2C(=O)OCC2[C@@H](OC(C)=O)c2ccc3c(c2)OCO3)c(Br)c(OC)c1OC` (some centres undefined), the EC50 is > 50.1 µM and the IC50 came out at 43.7 µM.

On to `COc1ccc(-n2c(=O)n(-c3ccccc3)c(=O)n2-c2ccc(OC)cc2)cc1`, for which the EC50 was > 200 µM and the IC50 is > 200 µM.

Take `Cc1nnn[n-]1.N.N.N.N.N.[Cl-].[Co+3]`: the EC50 is > 832 µM and the IC50 was > 832 µM.

In the case of `O=C(CC1SC(=Nc2ccccc2Cl)NC1=O)Nc1ccc(Cl)cc1` (centres undefined), the EC50 is > 631 µM and the IC50 is > 200 µM.

In the case of `O=C1NC(=O)C(=Cc2cccc(Cl)c2)C(=O)N1`, the EC50 is > 145 µM and the IC50 was > 145 µM.

`CSc1nc2c(=O)n(-c3ccccc3)c(=S)n(-c3ccccc3)c2s1`: the EC50 is > 200 µM and the IC50 amounted to 117 µM.

`CCC(COC(/C=C1/C=CC(=O)O1)COC(=O)c1ccccc1)c1ccccc1` (centres undefined): the EC50 was > 115 µM and the IC50 is 77.6 µM.

Regarding `CO[C@H]1C[C@@H]2CC[C@@H](C)[C@@](O)(O2)C(=O)C(=O)N2CCCC[C@H]2C(=O)O[C@H]([C@H](C)C[C@@H]2CC[C@@H](O)[C@H](OC)C2)CC(=O)[C@H](C)C=C(C)[C@@H](O)[C@@H](OC)C(=O)[C@H](C)C[C@H](C)/C=C/C=C/C=C1C`, the EC50 was > 14.1 µM and the IC50 is 7.59 µM.

Take `COC(=O)NN/C=C(\C=Nc1ccccc1)[N+](=O)[O-]`: the EC50 was > 97.7 µM and the IC50 was 87.1 µM.

Regarding `CCOC(=O)C12OC(OCC)(CC1(OCC)OCC)C1(CC1)C2=O` (centres undefined), the EC50 was > 200 µM and the IC50 was > 200 µM.

In the case of `CCCCc1c2c(nc3c1CCc1cc4cc5c(nc4nc1-3)-c1nc3c(c(CCCC)c1CC5)CCCC3)CCCC2`, the EC50 is > 0.977 µM and the IC50 is > 0.977 µM.

As for `CNC(=O)c1ncn(C2OC(CO)C(O)C2O)n1` (centres undefined), the EC50 was > 200 µM and the IC50 is > 200 µM.

Consider `O=S1(c2ccccc2)=NC(Nc2ccccc2)=Nc2ccccc21` (centres undefined), for which the EC50 was > 36.3 µM and the IC50 was 30.2 µM.

For the compound `NC(CSS(=O)(=O)O)=NCC12CC3CC(CC(C3)C1)C2`, the EC50 is > 200 µM and the half-inhibitory concentration (IC50) was 32.4 µM.

As to `COc1ccc(OC)c(/C=C/[N+](=O)[O-])c1`, the EC50 is > 200 µM and the IC50 was determined as 2.95 µM.

As to `COC(=O)/C=C/c1cnc2c(c1)oc(=O)n2CCc1ccccn1`, the EC50 is > 200 µM and the IC50 amounted to 24 µM.

For the compound `Cc1ccc(-n2c(=S)n(-c3ccccc3C)c3nc4ccccc4nc2/c3=N\Nc2ccccc2)cc1`, the EC50 was > 200 µM and the IC50 worked out at 123 µM.

Consider `Cc1ccc2nc3n(c2c1)C(c1c(F)cccc1F)SC3` (centres undefined), for which the EC50 was 26.9 µM and the IC50 was 45.7 µM.

Turning to `NS(=O)(=O)c1ccc(NC(=O)c2ccc3nc4ccccc4c(Nc4ccc(S(N)(=O)=O)cc4)c3c2)cc1`, the EC50 is 67.6 µM and the IC50 is > 200 µM.

On to `CCOC(=O)c1c(-c2ccc(Cl)cc2)c(C#N)c(=S)n(C2OC(COC(C)=O)C(OC(C)=O)C(OC(C)=O)C2OC(C)=O)c1-c1ccccc1` (centres undefined), for which the EC50 was > 200 µM and the IC50 is 77.6 µM.

As for `Cc1ccc2nc(C(C)C)c(=O)[nH]c2c1`, the EC50 is > 200 µM and the IC50 was > 200 µM.

Regarding `CC(=N/N=C/c1ccccn1)/C(C)=N/N=C(C)/C(C)=N/N=C(C)/C(C)=N/N=C(C)/C(C)=N\N=C\c1ccccn1`, the outcome was inactive.

Regarding `O=S(=O)(c1ccc(NC2=NC(c3ccc(O)cc3)(c3ccccc3O)c3ccccc32)cc1)c1ccc(NC2=NC(c3ccc(O)cc3)(c3ccccc3O)c3ccccc32)cc1` (centres undefined), the EC50 is > 200 µM and the 50% inhibitory concentration (IC50) turned out to be 3.47 µM.

As for `O=C1[C@@H]2C3SC(c4cc5ccccc5cc43)[C@@H]2C(=O)N1c1ccccc1`, the EC50 was > 72.4 µM and the IC50 is > 72.4 µM.

As for `CNc1nc2n(CCO)c(-c3ccccc3)c(-c3ccccc3)nc-2c(=O)n1`, the EC50 was > 50.1 µM and the IC50 came out at 26.3 µM.
